What is called inhibition is the change of the read-out against control, counted positive when it falls.

Data on 1 compound can be found in patent publication US10130611B2, “Use of benzo-heterocycle derivatives for preventing and treating cancer or for inhibiting cancer metastasis” (MEDICINAL BIOCONVERGENCE RESEARCH CENTER, priority 2009, dated 2018).

Entries after “also recorded” stand apart in the source; their conditions may differ.

Data set [1] relates to Mouse mammary carcinoma 4T-1 cells. Nature of the data set: In vivo cancer metastasis experiment. On the set-up: species or system Balb/c mice. The note with it: mice, 30 mg/kg once a day for 3 weeks. On the procedure: (§1) On MMP2 activity (FIG. 37) and cell migration (FIGS. 38 and 39), KL1-dose-dependent effect was measured. For the test on the cell migration, the cells were treated with KL1 for 8 hours. In FIG. 40, in order to see the effect of KL1 on protein synthesis of cells, A549 cells were treated with KL1 at indicated concentrations, and starved in methionine-free medium. Then, [^35S] methionine was added thereto for 2 hours. Then, the cells were incubated in complete medium for 4 hours, and the level of added methionine was measured by a scintillation counter. In FIG. 41, KL1-dose-dependent cytotoxicity was measured by using A549 cells. In FIG. 42, the effect of KL1 on cancer metastasis was measured according to the method as described above. In each group, 6 mice were included, and KL1 was abdominally injected for 3 weeks, in a dose of 30 mg/kg once a day. Then, the mice were sacrificed. The metastasized tumor nodules over 1 mm in diameter were counted, and their average was calculated (left). […]
Mouse mammary carcinoma 4T-1 cells were transfected with si-KRS, si-DRS or si-control, and incubated for 24 hours. […] The growth of a tumor was monitored by measuring a tumor size three times per week. The whole body weights were also simultaneously measured. […] The number and size of metastatic tumor nodules in lungs were measured, and tumor nodules of larger than 1 mm in diameter were separately recorded. […]

Data set [2] relates to A549 cells. Nature of the data set: Cell protein synthesis ([35S]methionine incorporation). Format: cell-based, human. The note with it: KL1 at indicated concentrations, [35S]methionine 2 hours. On the procedure:
as §1, with “(left). The photograph of a representative lung is shown at the right side.” for “(left).”
A549 cells were treated with the compound (2-[2-(4-methyl-benzoylimino)-benzothiazole-3-yl]-butyric acid, CAND-KL1 or KL1) represented by Formula 15, at indicated concentrations. […] They were lysed, and the radiation dose of lysed cells was measured by a scintillation counter.

For data set [3], the system named is A549 cells. Nature of the data set: Cytotoxicity analysis (EZ-cytox). The format is cell-based, human. As to conditions: KL1 at indicated concentrations, 24 hours. On the procedure: 10^4 A549 cells were placed in a 96-well plate, and treated with the compound represented by Formula 15, at indicated concentrations for 24 hours. Then, EZ-cytox (Daeil Lab, Korea) compound was added in an amount of 10 μl to each well in accordance with the manufacturer's instruction, followed by cultivation for 2 hours. A microplate reader was used to measure the absorbance at 420 nm.

Data set [4] concerns the target T1, interaction between KRS and laminin receptor (67LR) (Homo sapiens, UniProt Q15046).
T1 construct: expressed in transfected cells; host or cells: yeast EGY/SH cells
Nature of the data set: Yeast two hybrid growth assay, LexA-KRS/B42-LR pair. Format: cell-based. On the procedure: On the compound of the present invention obtained by screening a library of compounds, the extent of inhibition on the interaction between KRS and laminin receptor (67LR) was determined by a yeast two hybrid assay, as described below. KRS, LR, AIMP2, AIMP3 and MRS were cloned at LexA vector (clontech) and B42 vector (clontech) each so as to produce required vectors. From among the vectors, LexA-KRS vector and B42-LR vector were co-transformed into yeast EGY/SH cells, and then the yeast cells were diluted to an absorbance (540 nm wavelength) of 0.2 in galactose medium not containing uracil (Ura), histidine (His), tryptophane (Trp) and leucine (Leu), and placed in an amount of 200 u in a 96 well plate. 1 μl of each compound at a concentration of 10 mg/ml was placed in each well, incubated for 6 days, and the absorbance was measured at 540 nm. […] The inhibitory specificity of the selected compound was tested by using two different interaction pairs such as LexA-KRS/B42-AIMP2 and LexA-MRS/B42-AIMP3.
In order to determine if the compound of the present invention controls the interaction between KRS and laminin receptor, the present inventors determined the interaction between KRS and 67LR through treatment of the compound of the present invention.

T1 sequence (Q15046 whole entry): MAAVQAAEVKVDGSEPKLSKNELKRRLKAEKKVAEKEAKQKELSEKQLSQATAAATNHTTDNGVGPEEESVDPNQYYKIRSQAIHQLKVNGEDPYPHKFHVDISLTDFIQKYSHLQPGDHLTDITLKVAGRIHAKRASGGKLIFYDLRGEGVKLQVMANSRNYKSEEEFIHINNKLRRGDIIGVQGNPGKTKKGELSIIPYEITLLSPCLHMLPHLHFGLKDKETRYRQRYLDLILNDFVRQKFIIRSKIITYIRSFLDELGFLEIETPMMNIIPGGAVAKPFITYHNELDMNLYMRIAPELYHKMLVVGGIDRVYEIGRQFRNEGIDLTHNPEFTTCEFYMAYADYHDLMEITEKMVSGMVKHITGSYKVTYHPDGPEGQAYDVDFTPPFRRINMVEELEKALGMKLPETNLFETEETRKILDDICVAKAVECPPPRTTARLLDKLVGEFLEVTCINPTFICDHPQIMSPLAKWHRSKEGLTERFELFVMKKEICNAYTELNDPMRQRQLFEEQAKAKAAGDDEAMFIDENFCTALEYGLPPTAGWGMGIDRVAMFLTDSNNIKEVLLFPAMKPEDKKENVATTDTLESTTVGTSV

For the compound `CCC(C(=O)O)n1/c(=N/C(=O)c2ccc(C)cc2)sc2ccccc21` (stereo not drawn) [Compound of formula 15, 2-[2-(4-Methyl-benzoylimino)-benzothiazol-3-yl]-butyric acid], the “number of metastasized nodules” value in data set [1] (abdominally injected, lung nodules over 1 mm in diameter) is on record as “significantly reduced”. Besides, in data set [1] (KL1 treated vs non-treated group, listed as KL1, 30 mg/kg), the “primary tumor growth (weight and size)” value is “no significant difference in weight and size; also recorded: did not affect”. Also, the intracellular protein synthesis entry in data set [2] is given as “not influenced”. For the same compound, in data set [3], the viability entry is on record as “not influenced”. Further, in data set [4] (growth inhibition of yeast EGY/SH cells with LexA-KRS/B42-LR vs control, 1 μl of 10 mg/ml compound per well, 6 days, absorbance 540 nm, read-out: Inhibition rate(%)), the inhibition at 10000 µg/mL (stock) is 52.1%. The “KRS-67LR (yeast growth, OD level)” value in data set [4] (yeast two hybrid pair KRS-67LR, compound at 50 μg/ml, DMSO control 0.4241) is 0.2223.
